Test results from US9439436B2, “Use of aryl carbamates in agriculture and other plant-related areas” (North Carolina State University, priority 2010, dated 2016).

What was measured:
bacteria = settings: literature statement; cited from earlier work
E. coli = assay: biofilm inhibition, crystal violet reporter assay; type: cell-based
R. salexigens [1] = assay: biofilm inhibition, crystal violet reporter assay; type: cell-based, Rhodospirillum salexigens
[2] = tested on: methicillin-resistant S. aureus (MRSA); assay: biofilm inhibition, crystal violet reporter assay; type: cell-based
[3] = tested on: vancomycin-resistant Enterococcus faecium (VRE); assay: biofilm inhibition, crystal violet reporter assay; type: cell-based
R. salexigens [4] = settings: reported by Yamada et al.; cited from earlier work
[5] = tested on: multi-drug resistant Acinetobacter baumannii (MDRAB); assay: biofilm inhibition, crystal violet reporter assay; type: cell-based
S. epidermidis = assay: biofilm inhibition, crystal violet reporter assay; type: cell-based
[6] = tested on: S. aureus strains 29213, 29740, and 25923; assay: testing of the library on S. aureus strains; type: cell-based; settings: refers to Tables 2 and 3, not given

CC(C)(C)OC(=O)NCCn1nccn1 [Compound 5e, tert-butyl 2-(2H-1,2,3-triazol-2-yl)ethylcarbamate]
melting point: 64 to 66 °C

CCNC(=O)NCCc1ccccc1 [Compound 2g, 1-ethyl-3-phenethylurea]
melting point: 75 to 77 °C

CC(C)[C@H]1CC[C@H](C)C[C@@H]1OC(=O)NCCc1ccccn1 [Compound 9k, (1 S,2R, 5 S)-2-isopropyl-5-methylcyclohexyl 2-(pyridin-2-yl)ethylcarbamate]
melting point: 57 to 59 °C

CCNC(=S)N1CCCc2ccccc21 [Compound 7h, N-ethyl-3,4-dihydroquinoline-1(2H)-carbothioamide]
melting point: 55 to 57 °C

CC(C)[C@@H]1CC[C@@H](C)C[C@H]1OC(=O)NCCc1ccccc1 [Compound 2a, (1R, 2 S, 5R)-2-isopropyl-5-methylcyclohexyl phenethylcarbamate]
melting point: 84 to 86 °C

CCNC(=S)NCCc1ccccc1 [Compound 2h, 1-ethyl-3-phenethylthiourea]
melting point: 56 to 58 °C

CCNC(=O)NCCCc1ccccc1 [Compound 4g, 1-ethyl-3-(3-phenylpropyl)urea]
melting point: 48 °C

CC1CCC(C(C)C)C(O)C1 (single isomer, unassigned; (-)) [(−)-menthol]
antimicrobial activity (bacteria): known to possess antimicrobial activity

CCNC(=S)NC1Cc2ccccc2C1 [Compound 3h, 1-(2,3-dihydro-1H-inden-2-yl)-3-ethylthiourea]
melting point: 87 to 91 °C

CCSC(=O)NC1Cc2ccccc2C1 [Compound 3b, S-ethyl 2,3-dihydro-1H-inden-2-ylcarbamothioate]
melting point: 107 to 110 °C

CCNC(=O)NCCn1nccn1 [Compound 5g, 1-(2-(2H-1,2,3-triazol-2-yl)ethyl)-3-ethylurea]
melting point: 109 °C

O=C(NC1Cc2ccccc2C1)OCc1ccccc1 [Compound 3c, benzyl 2,3-dihydro-1H-inden-2-ylcarbamate]
melting point: 159 to 161 °C

CCSC(=O)NCCc1c[nH]c2ccccc12 [Compound 10b, S-ethyl 2-(1H-indol-3-yl)ethylcarbamothioate]
melting point: 68 to 70 °C

CCNC(=S)NCCn1nccn1 [Compound 5h, 1-(2-(2H-1,2,3-triazol-2-yl)ethyl)-3-ethylthiourea]
melting point: 91 to 93 °C

CC(C)[C@@H]1CC[C@@H](C)C[C@H]1OC(=O)NC1Cc2ccccc2C1 [Compound 3a, (1R, 2 S, 5R)-2-isopropyl-5-methylcyclohexyl 2,3-dihydro-1H-inden-2-ylcarbamate]
melting point: 167 to 170 °C

CCOC(=O)NCCc1ccccc1 [Compound 2d, ethyl N-(2-phenethyl) carbamate]
% Inhibition (200 μM 2d) of biofilm formation (E. coli): 40.8% | % Inhibition (200 μM 2d) of biofilm formation (R. salexigens [1]): 59.7% | % Inhibition (200 μM 2d) of biofilm formation ([2]; 200 μM, MRSA): 68.1% | % Inhibition (200 μM 2d) of biofilm formation [3]: 80.2% | antibiofilm activity against Rhodospirillum salexigens (R. salexigens [4]): moderate antibiofilm activity | % Inhibition (200 μM 2d) of biofilm formation [5]: 52.0% | % Inhibition (200 μM 2d) of biofilm formation (S. epidermidis): 63.1%

CCNC(=S)N1CCc2ccccc21 [Compound 6h, N-ethylindoline-1-carbothioamide]
melting point: 88 to 91 °C

CCNC(=O)NC1Cc2ccccc2C1 [Compound 3g, 1-(2,3-dihydro-1H-inden-2-yl)-3-ethylurea]
melting point: 117 °C

CC(C)CCC[C@@H](C)C1CCC2[C@@H]3CC=C4C[C@@H](OC(=O)NC5Cc6ccccc6C5)CC[C@]4(C)[C@H]3CC[C@]12C (some centres unmarked)
melting point: 114 to 116 °C

CCNC(=O)NCCc1ccc(N)cc1 [Compound 8g, 1-(4-aminophenethyl)-3-ethylurea]
melting point: 101 to 103 °C

CCNC(=O)NCCc1c[nH]c2ccccc12 [Compound 10g, 1-(2-(1H-indol-3-yl)ethyl)-3-ethylurea]
melting point: 109 to 112 °C

Cc1ccc(C(C)C)c(O)c1 [thymol]
antimicrobial activity (bacteria): known to possess antimicrobial activity

CC(C)CCC[C@@H](C)C1CCC2[C@@H]3CC=C4C[C@@H](OC(=O)N5CCc6ccccc65)CC[C@]4(C)[C@H]3CC[C@]12C (some centres unmarked)
melting point: 157 to 159 °C

CC(C)[C@@H]1CC[C@@H](C)C[C@H]1OC(=O)NCCCc1ccccc1 [Compound 4a, (1R, 2 S, 5R)-2-isopropyl-5-methylcyclohexyl 3-phenylpropylcarbamate]
melting point: 75 to 78 °C

CC(C)CCC[C@@H](C)C1CCC2[C@@H]3CC=C4C[C@@H](OC(=O)NCCc5ccc(Br)cc5)CC[C@]4(C)[C@H]3CC[C@]12C (some centres unmarked)
melting point: 142 to 145 °C

CC(C)CCC[C@@H](C)C1CCC2[C@@H]3CC=C4C[C@@H](OC(=O)NCCn5nccn5)CC[C@]4(C)[C@H]3CC[C@]12C (some centres unmarked)
melting point: 135 to 139 °C

CCNC(=O)NCCc1ccc(Br)cc1 [Compound 11g, 1-(4-bromophenethyl)-3-ethylurea]
melting point: 137 to 139 °C

Cc1ccc(C(C)C)cc1O [carvacrol]
antimicrobial activity (bacteria): known to possess antimicrobial activity

CC(C)CCC[C@@H](C)C1CCC2[C@@H]3CC=C4C[C@@H](OC(=O)NCCc5ccccc5)CC[C@]4(C)[C@H]3CC[C@]12C (some centres unmarked)
melting point: 74 to 76 °C

COc1ccc(CCNC(=O)O[C@@H]2C[C@H](C)CC[C@H]2C(C)C)cc1 [Compound 12a, (1R, 2 S, 5R)-2-isopropyl-5-methylcyclohexyl 4-methoxyphenethylcarbamate]
melting point: 95 to 98 °C

CC(C)[C@@H]1CC[C@@H](C)C[C@H]1OC(=O)NCCc1ccccn1 [Compound 9a, (1R, 2 S, 5R)-2-isopropyl-5-methylcyclohexyl 2-(pyridin-2-yl)ethylcarbamate]
IC50 values against MRSA (in words) ([2]; refers to Tables 2 and 3, not given): lowest IC50 values | melting point: 59 to 63 °C | activity against 29213, 29740, and 25923 (in words) [6]: worked well

CC(C)[C@@H]1CC[C@@H](C)C[C@H]1OC(=O)NCCc1ccc(Br)cc1 [Compound 11a, (1R, 2 S, 5R)-2-isopropyl-5-methylcyclohexyl 4-bromophenethylcarbamate]
melting point: 104 to 106 °C

Nc1ccc(CCNC(=O)OCc2ccccc2)cc1 [Compound 8c, benzyl 4-aminophenethylcarbamate]
melting point: 70 to 73 °C

CCNC(=S)NCCCc1ccccc1 [Compound 4h, 1-ethyl-3-(3-phenylpropyl)thiourea]
melting point: 51 to 53 °C

CCNC(=O)N1CCc2ccccc21 [Compound 6g, N-ethylindoline-1-carboxamide]
melting point: 111 to 113 °C

CC(C)(C)OC(=O)NC1Cc2ccccc2C1 [Compound 3e, tert-butyl 2,3-dihydro-1H-inden-2-ylcarbamate]
melting point: 51 to 53 °C

CC(C)CCC[C@@H](C)C1CCC2[C@@H]3CC=C4C[C@@H](OC(=O)NCCCc5ccccc5)CC[C@]4(C)[C@H]3CC[C@]12C (some centres unmarked)
melting point: 87 to 89 °C

CCOC(=O)NCCc1ccc(Br)cc1 [Compound 11d, ethyl 4-bromophenethylcarbamate]
melting point: 63 to 65 °C

CC(C)CCC[C@@H](C)C1CCC2[C@@H]3CC=C4C[C@@H](OC(=O)N5CCCc6ccccc65)CC[C@]4(C)[C@H]3CC[C@]12C (some centres unmarked)
melting point: 107 to 110 °C
